Results taken from patent US7001770B1, “Calpain inhibitors and their applications” (priority 1998, dated 2006).
Square brackets hold non-standard residues; d marks the D form. Peptide text beside a SMILES is read from it. Nle = CCCC[C@H](N)C(=O)O

Assays:
HLF cells = test: Infectivity: copies of rAd-p53 DNA by PCR; assay type: cell-based
Protocol: The effects of the use of calpain inhibitors, particularly CI-1, were investigated in their ability to increase the infectivity of the HLF tumor cell line to rAd-p53. HLF cell lines were prepared in substantial accordance with the teaching of example 6 herein. The cells were exposed to two concentrations of rAd-p53 in the presence and absence of 10 μM CI-1. The total number of copies of rAd-p53 DNA were determined by PCR as described in Example 6. The results of these experiments are presented in Table 4 below and in graphical form in FIG. 7 of the attached drawings.
A similar experiment was conducted to determine the effect of pre-treatment of the cells with the calpain inhibitor. The cell lines were prepared as indicated above. In this experiment, one group of cells was pretreated with a 10 μM concentration of CI-1 for a period of 6 hours prior to exposure to the Ad-p53. The control sample was not pretreated. The results of these experiments are presented in Table 5 below and in graphical form in FIG. 7 of the attached drawings.
The following materials were obtained from Perkin Elmer Corporation under Part No. N808-0028: Gene Amp 10× Taqman Buffer A, 25 mM MgCl2, 5 μM Oligonucleotide Primer “A”, 5 μM Oligonucleotide Primer “B”, 5 units/mL AmpliTaq® Gold DNA Polymerase, 10 μM Taqman Probe. Deoxynucleotide Triphosphates, dATP, dCTP, and dGTP are 10 mM. dUTP is 20 mM. […]

[1] = test system: beta-galactosidase transgene; test: In vivo transgene RNA in liver by RT-PCR; parameters: species or system C57BL/6 mice; conditions: CI-1 60 mg/kg ip, three administrations; 9×10^9 particle/ml rAd beta-galactosidase tail vein; seen in one third of the mice
Protocol: […] C57BL/6 mice were treated with 60 mg/kg injected intraperitoneally on day minus one. Three control mice were injected with CI-1 solvent only (PBS/0.02% DMSO). On day zero, all mice were tail vein injected with 9×10^9 particle/ml with a recombinant adenovirus encoding the beta-galactosidase transgene. CI-1 or solvent was administed one additional time on day one for three total intraperitoneal administrations of CI-1. Mice were sacrificed three days and nine days later (four-and ten days post-infection respectively), and livers were harvested for quantitative PCR and RT-PCR to detect viral DNA and viral transcript (b-galactosidase) respectively. One third of the miceexpressed a high level of transgene RNA in response to calpain inhibitor 1 treatment, as compared with virus alone.

CCCC[C@@H](C=O)NC(=O)[C@H](CC(C)C)NC(=O)[C@H](CC(C)C)NC(C)=O [CI-1, N-acetyl-leu-leu-norleucinal] (Ac-Leu-Leu-[Nle]-aldehyde)
increase in intracellular viral DNA (HLF cells; 10 μM CI-1, no pre-treatment, viral concentration 1×10^7 and 1×10^8 particles): 50 fold | infectivity of the cells to the virus relative to untreated cells (HLF cells; 6 hour pretreatment with 10 μM CI-1, ACN53 3×10^7): approximately 130 times | level of transgene RNA in liver compared with virus alone [1]: Approximately a six fold higher level
